Test [1] has as its system IL-1β. Particulars: after MCAo in mice; cited from earlier work.
In test [2] the test system is NAFLD. Briefly: Mouse NAFLD model induced by 60% high-fat feed, oil red staining and immunohistochemistry of liver (Example 6). It counts as in vivo. As to conditions: NAFLD mice, 30 mg/kg intraperitoneally once every 2 days. Here is the method: Experimental methods: The "Western diet" (WD) was simulated with 60% high-fat feed, and the NAFLD model could be established within 12 weeks. After the establishment of the animal model, the mice were intraperitoneally injected once every 2 days at a dose of 30 mg/kg. Liver tissues of the mice were collected on days 12, 15, and 21 of administration, and oil red staining was performed on the liver tissues of each group.
(§1) Experimental grouping: The experimental groups were injected with reparixin, and the control group was injected with PBS.
(A) After NAFLD was established, raparixin was intraperitoneally injected once every two days; macroscopic views of representative liver tissues and oil red staining of liver sections in each group are shown, and the scale represents 50 µm. (B) Oil red staining positive area rate of NAFLD and 12-day treatment groups, n = 4. (C) Oil red staining positive area rate of NAFLD and 15-day treatment groups, n = 4. Statistical test: mean + SD, Student's t-test, * p < 0.05.
A: representative gross views of livers of mice in the NAFLD treatment group and untreated group, and oil red O staining and immunohistochemical staining on liver sections of the two groups of mice, with the scale bar being 100 µm; B-C: comparison of mean immunohistochemical staining densities of IL6 (B) and CXCR2 (C) in livers of NAFLD mice treated with reparixin for 21 days (mean ± SD, Student's t test).

Test [3] has as its system Luciferase-MC38 cells. Nature of the test: Mouse CRC liver metastasis model by intra-splenic injection, reparixin alone (Example 4). The class given is in vivo, C57BL/6 mice. As to conditions: for liver weight / liver/body weight ratio: reparixin 30 mg/kg intraperitoneally every other day, day 12. Here is the method: Experimental methods: Luciferase-MC38 cells were intrasplenically injected into C57BL/6 mice complicated by NAFLD or uncomplicated by NAFLD. Subsequently, reparixin (MCE, 30 mg/kg) or PBS was intraperitoneally injected every other day. On day 6 after tumor inoculation, the extent of liver metastasis was observed by imaging using an In vivo Imaging System (IVIS, PerkinElmer, Hopkinton, MA, USA). On day 12 after tumor inoculation, the mice were sacrificed under isoflurane anesthesia and soaked in alcohol for 30 min. Livers from each group of mice were prepared into single-cell suspensions, which were subjected to blocking, staining, incubation, and subsequent detection on the machine.
as §1
(A) Experimental treatment protocol: After Luciferase-MC38 cells were inoculated, PBS or reparixin was injected on days 3, 5, 7, 9, and 11, respectively, and the mice were sacrificed on day 12. (B) In vivo bioluminescence imaging of each group (CRLM group, CRLM + reparixin group, NAFLD + CRLM group, NAFLD + CRLM + reparixin group) on day 6 after tumor inoculation. (C) Representative gross anatomical views of livers of each group of mice (samples collected on day 12 after treatment); yellow arrows represent tumors. (D) Liver weight of each group of mice; n = 5-6.

The test system of test [4] is gastric cancer. Particulars: treatment of gastric cancer; cited from earlier work.
For test [5] the following is noted: 5 mg/kg subcutaneously once daily for 3 consecutive weeks; cited from earlier work.

`CC(C)Cc1ccc([C@@H](C)C(=O)NS(C)(=O)=O)cc1` [reparixin]: in test [1], the “level of IL-1β in the brain” value is reported as “reduce”. Also, the inflammation entry in test [2] (IL6 and CXCR2 staining after 21 days) was “reduce inflammation”. In test [2] (days 12, 15, 21), the hepatocellular steatosis entry was “significantly ameliorated” and the lipid vacuoles entry was “reduced”. In addition, in test [3] (CRLM animal model), the liver weight entry was “decreased significantly” and the liver/body weight ratio entry is listed as “decreased significantly”. Moreover, in test [3] (NAFLD + CRLM animal model), the liver weight entry is “decreased significantly” and the liver/body weight ratio entry is on record as “decreased significantly”. In addition, the liver metastasis burden result in test [3] (especially in mice complicated by NAFLD, 30 mg/kg intraperitoneally) is listed as “can reduce the liver metastasis burden”. In addition, in test [4], the “overall survival (OS) rate” value is on record as “prolongs” and the “programmed death ligand 1 macrophages” value is listed as “reduction”. Also, in test [5], the blood flow entry was “increased” and the systolic blood pressure result is “effectively reduced”.

The values above are taken from patent publication EP4681707A1, “METHOD FOR TREATING DISEASES BY USING REPARIXIN ALONE OR IN COMBINATION WITH ANTI-PD-1 ANTIBODY” (Shandong Cancer Hospital Affiliated to Shandong First …, priority 2023, dated 2024).
